The target in experiment [1] is T1, Muscarinic acetylcholine receptor M1 (Homo sapiens) (UniProt P11229).
T1 sequence (whole entry): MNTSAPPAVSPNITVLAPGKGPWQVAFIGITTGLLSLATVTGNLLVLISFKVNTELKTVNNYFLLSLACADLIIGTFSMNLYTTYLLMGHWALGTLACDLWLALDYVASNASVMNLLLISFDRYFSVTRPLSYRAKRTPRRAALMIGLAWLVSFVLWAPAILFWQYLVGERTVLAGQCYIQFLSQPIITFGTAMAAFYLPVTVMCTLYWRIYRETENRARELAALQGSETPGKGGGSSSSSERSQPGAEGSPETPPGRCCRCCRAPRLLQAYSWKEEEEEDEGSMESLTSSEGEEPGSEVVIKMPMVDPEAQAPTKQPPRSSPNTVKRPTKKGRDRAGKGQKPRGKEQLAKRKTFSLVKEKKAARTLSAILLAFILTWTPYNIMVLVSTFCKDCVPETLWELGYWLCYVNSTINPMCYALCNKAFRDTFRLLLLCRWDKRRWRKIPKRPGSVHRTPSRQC
Kind of experiment: Displacement of [3H]NMS from recombinant human mAChR1 expressed in Flp-In-CHO cells after 1 hr by microbeta scintillation counting analysis. The experiment is classed as cell-based. For orientation: In a radioligand displacement assay an active substance lowers the binding of a labelled ligand.

Experiment [2] has as its target Metabotropic glutamate receptor 5 (Homo sapiens) (UniProt P41594). Kind of experiment: Negative allosteric modulation of mGlu5 receptor (unknown origin) expressed in HEK293A cells assessed as inhibition of glutamate induced-calcium mobilization by Fluo-4 AM dye based fluorescence assay. It counts as functional, cell-based.
The target of experiment [3] is D(2) dopamine receptor (Homo sapiens) (UniProt P14416).
Description: Displacement of [3H]spiperone from D2 long receptor (unknown origin) expressed in Flp-In-CHO cell membranes assessed as transduction coefficient by measuring dissociation half life after 5 mins by liquid scintillation counter method
For experiment [4] the target is unchanged. This is another data set of the same source.
Description: Agonist activity at D2 long receptor (unknown origin) expressed in Flp-In-CHO cells assessed as change in transduction coefficient by measuring cellular impedance measured immediately at 15 secs interval for 90 mins by xCELLigence assay
Experiment [5] shares this target. The source holds these as a separate data set.
Description: Agonist activity at D2 long receptor (unknown origin) expressed in Flp-In-CHO cells co-expressing Rluc8-tagged GalphaoB assessed as change in transduction coefficient by measuring GalphaoB activation in presence of coelenterazine by BRET assay
The target is the same in experiment [6]. The source holds these as a separate data set.
Description: Agonist activity at D2 long receptor (unknown origin) expressed in Flp-In-CHO cells assessed as change in transduction coefficient by measuring inhibition of forskolin-induced cAMP production measured after 5 mins in presence of coelenterazine by BRET assay
For experiment [7] the target is unchanged. This is another data set of the same source.
Description: Agonist activity at D2 long receptor (unknown origin) expressed in Flp-In-CHO cells assessed as change in transduction coefficient by measuring induction of ERK1/2 phosphorylation after 5 mins by Alphascreen assay
In experiment [8] the target is T1, Muscarinic acetylcholine receptor M1 (Homo sapiens). Kind of experiment: Displacement of [3H]NMS from recombinant human mAChR1 expressed in CHO cells. It counts as cell-based.
The target in experiment [9] is T2, Tyrosine-protein kinase BTK (Homo sapiens, UniProt Q06187). Nature of the experiment: Binding affinity to recombinant full length BTK (unknown origin) assessed as residence time by fluorescent tracer based TR-FRET assay.
Experiment [10] concerns the target T2, Tyrosine-protein kinase BTK. Nature of the experiment: Ratio of Kinact to ki for recombinant full length BTK (unknown origin).
Experiment [11] has as its target T3, C-X-C chemokine receptor type 3 (Homo sapiens) (UniProt P49682).
T3 sequence (whole entry): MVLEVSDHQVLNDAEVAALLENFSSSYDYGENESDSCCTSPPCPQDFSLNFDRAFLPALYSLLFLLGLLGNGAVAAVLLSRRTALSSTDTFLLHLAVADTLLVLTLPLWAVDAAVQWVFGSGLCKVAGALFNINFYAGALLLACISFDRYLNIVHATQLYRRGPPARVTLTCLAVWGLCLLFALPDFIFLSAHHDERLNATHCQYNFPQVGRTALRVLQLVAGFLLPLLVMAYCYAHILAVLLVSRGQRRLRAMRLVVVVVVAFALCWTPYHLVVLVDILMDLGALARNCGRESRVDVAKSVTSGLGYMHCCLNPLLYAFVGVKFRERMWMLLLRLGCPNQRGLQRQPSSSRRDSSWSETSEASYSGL
Kind of experiment: Displacement of [3H]RAMX3 from CXCR3 (unknown origin) expressed in HEK cells after 1 hrs by microbeta scintillation counter. The experiment is classed as cell-based.

Experiment [12] concerns the target D(2) dopamine receptor (Homo sapiens) (UniProt P14416). The source holds these as a separate data set.
Description: Agonist activity at Rluc8-tagged D2 long receptor (unknown origin) expressed in Flp-In-CHO cells co-expressing YFP-tagged beta-arrestin2 assessed as change in transduction coefficient by measuring beta-arrestin2 recruitment measured after 5 mins by BRET assay
Experiment [13] shares this target. This is another data set of the same source.
Description: Agonist activity at D2 long receptor (unknown origin) expressed in Flp-In-CHO cells co-expressing Rluc8-tagged Galphai1 assessed as change in transduction coefficient by measuring Galphai1 activation after 5 mins in presence of coelenterazine by BRET assay
The target in experiment [14] is T4, Glycine receptor subunit alpha-1 (Homo sapiens, UniProt P23415).
T4 sequence (P23415 whole entry): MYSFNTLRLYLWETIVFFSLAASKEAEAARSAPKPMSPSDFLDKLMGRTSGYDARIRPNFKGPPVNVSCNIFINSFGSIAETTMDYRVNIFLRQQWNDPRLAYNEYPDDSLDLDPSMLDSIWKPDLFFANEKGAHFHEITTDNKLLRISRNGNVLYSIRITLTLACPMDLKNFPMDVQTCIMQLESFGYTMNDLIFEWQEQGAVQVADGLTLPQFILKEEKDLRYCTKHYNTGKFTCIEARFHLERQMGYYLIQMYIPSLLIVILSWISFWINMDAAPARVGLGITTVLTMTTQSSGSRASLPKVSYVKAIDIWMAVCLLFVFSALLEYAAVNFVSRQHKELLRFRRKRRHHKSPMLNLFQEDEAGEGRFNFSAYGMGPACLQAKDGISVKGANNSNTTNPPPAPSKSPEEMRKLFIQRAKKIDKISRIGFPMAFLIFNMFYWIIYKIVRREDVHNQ
Nature of the experiment: Positive allosteric modulatory activity at recombinant human glycine alpha1 receptor expressed in HEK293 cells assessed as potentiation of glycine-induced response at -50 mV holding potential in presence of fructose by whole cell patch clamp method. It counts as cell-based. (The patch-clamp technique gives a direct electrical read-out from membranes.)

Experiment [15] concerns the target T5, Muscarinic acetylcholine receptor M2 (Homo sapiens, UniProt P08172).
T5 sequence (P08172 whole entry): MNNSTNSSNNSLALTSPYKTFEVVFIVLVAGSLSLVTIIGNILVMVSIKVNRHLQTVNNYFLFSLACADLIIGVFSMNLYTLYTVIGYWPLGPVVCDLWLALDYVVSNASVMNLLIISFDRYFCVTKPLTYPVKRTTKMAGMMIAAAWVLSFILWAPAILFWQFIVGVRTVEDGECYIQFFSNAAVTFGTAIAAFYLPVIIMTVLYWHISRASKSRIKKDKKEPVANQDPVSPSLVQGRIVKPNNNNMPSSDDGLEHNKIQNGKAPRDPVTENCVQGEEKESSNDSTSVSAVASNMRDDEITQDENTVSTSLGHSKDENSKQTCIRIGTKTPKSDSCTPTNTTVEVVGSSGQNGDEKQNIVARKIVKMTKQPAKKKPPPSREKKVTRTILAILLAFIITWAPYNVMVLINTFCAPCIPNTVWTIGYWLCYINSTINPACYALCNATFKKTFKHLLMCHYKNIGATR
Kind of experiment: Displacement of [3H]NMS from wild-type human mAChR2 expressed in Flp-in-CHO cell membranes in presence of mAChR2 agonist xanomeline after 90 mins by scintillation counting analysis.

In experiment [16] the target is T5, Muscarinic acetylcholine receptor M2. Nature of the experiment: Displacement of [3H]NMS from wild-type human mAChR2 expressed in Flp-In-CHO cell membranes in presence of mAChR2 agonist acetylcholine after 90 mins by scintillation counting analysis.

By pKb is commonly meant −log10 of the Kb, conventionally taken in molar units. As a reminder, the EC50 is the concentration that produces a half-maximal response. By Ki is commonly meant a dissociation constant, usually derived from enzyme kinetics or from competition with a known ligand.

Chain of D(2) dopamine receptor (Homo sapiens) (P14416 whole entry): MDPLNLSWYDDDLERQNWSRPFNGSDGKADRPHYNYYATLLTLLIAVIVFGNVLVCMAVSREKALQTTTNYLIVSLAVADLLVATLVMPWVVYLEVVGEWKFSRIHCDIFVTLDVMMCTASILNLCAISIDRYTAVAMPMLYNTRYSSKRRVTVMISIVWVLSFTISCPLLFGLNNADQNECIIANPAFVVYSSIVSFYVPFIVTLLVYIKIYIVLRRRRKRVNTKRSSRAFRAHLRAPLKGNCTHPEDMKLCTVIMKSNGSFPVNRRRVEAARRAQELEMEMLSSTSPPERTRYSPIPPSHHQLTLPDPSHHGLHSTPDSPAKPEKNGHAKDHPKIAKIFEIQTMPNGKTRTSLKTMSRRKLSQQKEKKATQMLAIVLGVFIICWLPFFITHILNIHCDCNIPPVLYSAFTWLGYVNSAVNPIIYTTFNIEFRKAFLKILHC
T2 sequence (Q06187 whole entry): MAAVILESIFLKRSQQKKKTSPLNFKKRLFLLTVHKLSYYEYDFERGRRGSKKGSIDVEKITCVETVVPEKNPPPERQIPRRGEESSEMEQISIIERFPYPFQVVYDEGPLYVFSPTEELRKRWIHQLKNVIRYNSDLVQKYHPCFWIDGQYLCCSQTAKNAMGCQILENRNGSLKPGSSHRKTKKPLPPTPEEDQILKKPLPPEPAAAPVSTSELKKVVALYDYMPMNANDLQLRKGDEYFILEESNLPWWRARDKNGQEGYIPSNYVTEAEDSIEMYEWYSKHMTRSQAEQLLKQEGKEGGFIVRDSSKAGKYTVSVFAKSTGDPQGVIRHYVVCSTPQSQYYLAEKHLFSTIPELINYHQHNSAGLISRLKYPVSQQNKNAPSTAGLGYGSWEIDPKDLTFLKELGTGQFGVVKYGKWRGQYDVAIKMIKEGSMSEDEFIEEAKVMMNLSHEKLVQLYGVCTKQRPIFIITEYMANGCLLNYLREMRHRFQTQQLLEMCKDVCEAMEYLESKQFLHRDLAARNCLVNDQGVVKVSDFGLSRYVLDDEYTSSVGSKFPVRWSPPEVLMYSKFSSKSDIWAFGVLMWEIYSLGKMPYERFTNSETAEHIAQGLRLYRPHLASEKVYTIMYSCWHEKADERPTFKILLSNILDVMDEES
Chain of Metabotropic glutamate receptor 5 (Homo sapiens) (P41594 21-1212 limits assumed): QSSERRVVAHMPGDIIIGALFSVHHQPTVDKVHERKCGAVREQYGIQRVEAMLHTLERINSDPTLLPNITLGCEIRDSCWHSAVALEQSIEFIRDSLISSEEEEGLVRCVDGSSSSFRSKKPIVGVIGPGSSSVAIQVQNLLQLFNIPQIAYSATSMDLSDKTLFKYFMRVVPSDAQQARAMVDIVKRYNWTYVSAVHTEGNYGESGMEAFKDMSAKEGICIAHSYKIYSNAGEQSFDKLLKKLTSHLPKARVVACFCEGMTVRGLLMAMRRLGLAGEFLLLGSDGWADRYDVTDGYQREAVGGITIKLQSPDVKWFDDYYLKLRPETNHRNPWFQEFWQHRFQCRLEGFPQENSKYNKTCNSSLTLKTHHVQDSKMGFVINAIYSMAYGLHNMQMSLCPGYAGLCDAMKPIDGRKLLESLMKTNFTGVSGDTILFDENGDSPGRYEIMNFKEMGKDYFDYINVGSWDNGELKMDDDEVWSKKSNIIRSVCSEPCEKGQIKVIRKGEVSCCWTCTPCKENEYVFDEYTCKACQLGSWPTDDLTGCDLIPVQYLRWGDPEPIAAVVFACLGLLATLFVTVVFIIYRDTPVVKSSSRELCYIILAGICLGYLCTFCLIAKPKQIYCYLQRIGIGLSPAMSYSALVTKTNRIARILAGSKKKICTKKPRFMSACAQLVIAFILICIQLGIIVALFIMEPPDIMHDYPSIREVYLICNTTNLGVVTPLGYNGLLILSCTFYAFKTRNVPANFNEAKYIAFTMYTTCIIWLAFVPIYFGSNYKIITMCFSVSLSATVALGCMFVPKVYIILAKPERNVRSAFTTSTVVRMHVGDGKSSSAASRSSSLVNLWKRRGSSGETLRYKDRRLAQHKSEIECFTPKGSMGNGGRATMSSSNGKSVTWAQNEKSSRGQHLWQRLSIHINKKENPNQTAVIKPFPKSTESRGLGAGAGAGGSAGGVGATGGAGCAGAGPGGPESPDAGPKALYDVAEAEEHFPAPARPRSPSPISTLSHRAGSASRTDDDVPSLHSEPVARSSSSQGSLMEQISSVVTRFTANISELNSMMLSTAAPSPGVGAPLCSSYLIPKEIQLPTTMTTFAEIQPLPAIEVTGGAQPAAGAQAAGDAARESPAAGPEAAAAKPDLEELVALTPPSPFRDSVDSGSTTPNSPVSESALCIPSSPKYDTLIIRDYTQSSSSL

Regarding `COc1ccc(Cn2cc(C(=O)O)c(=O)c3ccccc32)cc1`, in experiment [1], the pKb was determined as 4.8.

As for `Cn1cc(-c2ccc(Cc3cc4c(=O)n([C@H]5CCCC[C@@H]5O)cnc4c4ccccc34)cn2)cn1`, the pKb in [1] came to 5.8.

With `Cn1cc(-c2ccc(Cc3ccc4ncn([C@H]5CCCC[C@@H]5O)c(=O)c4c3)cn2)cn1`, the pKb in experiment [1] was found to be 4.3. As for `C#CCOc1ccc(C(=O)c2ccc(OCCOc3cccc(C#Cc4csc(C)n4)c3)cc2)cc1`, in [2], the pKb turned out to be 6.1. On to `CN(C)C(=O)N[C@H]1CC[C@H](CCN2CCN(c3cccc(Cl)c3Cl)CC2)CC1`, for which, in experiment [3], the T1/2 came out at 1.4 min. Moreover, the deltalog(Tau/KA) in [4] is 0.3; in [5] it was 0.7; in experiment [6], 0.2; in experiment [7], -1.1. For `O=C(O)c1cn(Cc2ccc(N=C=S)cc2)c2ccccc2c1=O`, the pKb in experiment [8] stood at 5.2. As to `CC(C)(/C=C(\C#N)C(=O)N1CCC[C@@H]1Cn1nc(-c2ccc(Oc3ccccc3)cc2F)c2c(N)ncnc21)NC1COC1`, the TIME in experiment [9] was 167 h. In addition, the Ratio in [10] is 0.4. As to `Cc1cc2ncn([C@H]3CCCC[C@@H]3O)c(=O)c2cc1Cc1ccc(-c2cnn(C)c2)nc1`, the pKb in experiment [1] came out at 5.2. With `Cc1c(Cc2ccc(-c3cnn(C)c3)nc2)cc2c(=O)n([C@H]3CCCC[C@@H]3O)cnc2c1C`, in [1], the pKb came to 5.1. `CCOc1cc(CC(=O)N(Cc2ccc(OC)c(B(O)O)c2)C(C)c2nc3ncccc3c(=O)n2-c2ccc(C)cc2)ccc1F` (stereo not given) registered a pKb in experiment [11] of 6.1.

As to `O=c1[nH]c2cccc(N3CCN(Cc4cccc(-c5ccccc5)c4)CC3)c2o1`, in experiment [3], the T1/2 is 86 min. Also, the deltalog(Tau/KA) in [12] is -0.6; in experiment [4] it was -0.3; in experiment [13], 1.4; in experiment [5], 0.3; in experiment [6], -0.2; in experiment [7], -1.2.

Take `O=C(CO)[C@@H](O)[C@H](O)[C@H](O)CO` [FRUCTOSE]: the EC50 in experiment [14] is 12.6 µM. Take `COc1nc2sc(C(=O)NC3CC3)c(N)c2c(C)c1Cl`: the Ki is 0.158 µM in [15] and 3.16 µM in experiment [16].

Values taken from ChEMBL document CHEMBL4028823, “Pharmacological property optimization for allosteric ligands: A medicinal chemistry perspective” (Bioorg Med Chem Lett, 2017).
